Peptide text beside a SMILES is read from it.
Row | Compound | logP
1 | COP(=S)(OC)Oc1ccc([N+](=O)[O-])cc1 | 2.86
2 | CNP(=O)(OC)Oc1ccc(C(C)(C)C)cc1Cl (stereo not given) | 3.42
3 | CC=CC=CC (mixture of isomers) | 2.8
4 | Ic1nc(I)c(I)[nH]1 | 2.78
5 | c1ccc2c(c1)cnn2C12CC3CC(CC(C3)C1)C2 | 4.33
6 | CN(C)c1ccc(N=Nc2ccccc2)cc1 | 4.58
7 | CCCCC1(CC)C(=O)NC(=O)NC1=O | 1.73
8 | CN(C)c1ccnnc1 | -0.09
9 | CCc1ccco1 | 2.4
10 | OCCCc1nc2ccccc2[nH]1 | 1.25
11 | CNC(=O)Oc1ccc(C)cc1 | 1.66
12 | CNC(=O)Oc1cc(C(C)C)cc(C(C)C)c1 | 3.79
13 | CCNCc1cccnc1 | 0.76
14 | CCCCCCOC(N)=O | 1.85
15 | CC(=O)C(F)(F)F | 0.2
16 | C#C[C@]1(O)CC[C@H]2[C@@H]3CCc4cc(O)ccc4[C@H]3CC[C@@]21C | 3.67
17 | CC(=O)Nc1ccccc1C | 0.85
18 | NCc1ccco1 | 0.37
19 | CNC(=O)Oc1ccc(I)cc1 | 2.46
20 | C#Cc1ccccc1 | 2.53
21 | O=C(O)CCCn1nnc2ccccc21 | 0.01
22 | COc1cccc(C(=O)N(C)C)c1 | 1
23 | CCNCCNCC | 0.21
24 | N#Cc1ccccc1 | 1.56
25 | c1ccc(-c2ncncn2)cc1 | 1.93
26 | Oc1ccc2ccccc2c1 | 2.7
27 | C=C(C=O)CC | 1.24

Row | Compound | logP
28 | COc1nccnc1NS(=O)(=O)c1ccc(N)cc1 | 0.7
29 | CCc1cccc(CC)c1N(COC)C(=O)CCl | 3.52
30 | CC(=O)NCC(=O)N[C@@H](C)C(=O)N[C@H](C(N)=O)C(C)C (Ac-Gly-Ala-Val-NH2) | -1.56
31 | CCN(CC)CCOC(=O)C=Cc1ccc(F)cc1 | 3.52
32 | CCC(Br)(CC)C(=O)NC(N)=O | 1.54
33 | O=C(O)c1ccc(Br)cc1 | 2.86
34 | CC(C)NC(C)(C)C | 1.56
35 | Cc1cccc(CO)c1 | 1.6
36 | Cc1nc2ccccc2[nH]1 | 1.43
37 | CCCCOC(C)=O | 1.78
38 | Nc1nc(N)c2ccccc2n1 | 1
39 | CCC1(C2=CCCCC2)C(=O)NC(=O)N(C)C1=O (stereo not given) | 2.25
40 | COC(=O)c1ccc(NC(C)=O)cc1 | 1.79
41 | COP(=O)(OC)Oc1ccc([N+](=O)[O-])cc1 | 1.33
42 | Cc1cnc2ccccc2n1 | 1.61
43 | c1cncnc1 | -0.4
44 | CC(=O)CCC(C)=O | -0.27
45 | c1ccc(-c2nc3ccccc3[nH]2)cc1 | 3.24
46 | CCCBr | 2.1
47 | COc1cccc(C(C)=O)c1 | 1.84
48 | CCCCCC1(CC)C(=O)NC(=O)NC1=O | 2.24
49 | O=C(Nc1ccccc1)NC1CC(O)C(CO)OC1O (stereo not given) | -0.61
50 | O=NN1CCNCC1 | 0.18
51 | COc1cccc(C(=O)NC2CC3CCC(C2)N3Cc2ccccc2)c1OC (stereo not given) | 3.24
52 | N#Cc1cccc(C(=O)O)c1 | 1.48
53 | NCCCCc1ccccn1 | 0.86
54 | CCC(=O)c1ccc(O)cc1 | 2.03

Row | Compound | logP
55 | CCCCCCCBr | 4.36
56 | CC[C@H](C)[C@H](NC(=O)[C@@H](NC(C)=O)C(C)C)C(=O)NCC(N)=O (Ac-Val-Ile-Gly-NH2) | -0.45
57 | COP(=O)(OC)Oc1ccc([N+](=O)[O-])c(C(C)C)c1 | 2.57
58 | CC(=O)Nc1ccc(C(=O)O)cc1 | 1.31
59 | N#Cc1ccc2[nH]ccc2c1 | 2.38
60 | O=C(O)COc1ccccc1F | 1.39
61 | CCC(C)(C)Cl | 2.52
62 | NC(C(=O)O)c1ccccc1 (stereo not given) | -1.7
63 | OCCOCCOCCN1CCC(=C(c2ccccc2)c2ccccc2)CC1 | 3.78
64 | O=[N+]([O-])c1ccncc1 | 0.33
65 | Nc1ncccn1 | -0.22
66 | CCCN(C)/N=N/c1ccc(C(N)=O)cc1 | 2.17
67 | O=C(c1ccccc1)c1ccncc1 | 1.98
68 | CCCCNC(=O)c1ccc(S(N)(=O)=O)cc1 | 1.05
69 | O=NN(Cc1ccccc1)c1ccccc1 | 3.38
70 | NC(=O)C(=Cc1ccccc1)C(N)=O | -0.13
71 | O=[N+]([O-])c1ccc(Br)cc1 | 2.55
72 | c1ccc2c(c1)Nc1ccccc1S2 | 4.15
73 | O=C(NP(=O)(N1CC1)N1CC1)c1ccc(I)cc1 | 2.25
74 | CCC(=O)O[C@]1(C(=O)CO)CC[C@H]2[C@@H]3CCC4=CC(=O)CC[C@]4(C)[C@H]3[C@@H](O)C[C@@]21C | 2.7
75 | ClC(Cl)C(Cl)(Cl)Cl | 3.22
76 | CC(=O)Oc1cccc([N+](=O)[O-])c1 | 1.82
77 | C[C@H]1C[C@H]2[C@@H]3CCC4=CC(=O)C=C[C@]4(C)[C@@]3(F)[C@@H](O)C[C@]2(C)[C@@]1(O)C(=O)CCl | 2.48
78 | CC1(C)C=Cc2ccccc2O1 | 3.31
79 | CC(N)(Cc1ccc(O)cc1)C(=O)O (stereo not given) | -1.89
80 | c1ccc2c(c1)CCC2 | 3.18

Reference: the OPERA property sets (Mansouri et al. 2018)
